System: 817829-284-R-J1-PDC multi-cell spheroid viability
Assay: Anticancer human tumor 817829-284-R-J1-PDC patient-derived colon adenocarcinoma cell line growth inhibition [PI3K]
Conditions: for IC50: curve of first compound; for viability, T/C: stronger effect = lower value
Outline: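 Targeted small molecules plus PI3K inhibitors, half-log dose series from Cmax (default top 10 microM), were applied to heterotypic spheroids of cancer cells with HUVEC and MSCs. Viability indicated growth inhibition.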

[1] = second compound 0.0316 µM, first compound 0.0316 µM
[2] = second compound 0.0316 µM, first compound 0.1 µM
[3] = second compound 0.0316 µM, first compound 0.316 µM
[4] = second compound 0.0316 µM, first compound 1 µM
[5] = second compound 0.0316 µM, first compound 3.16 µM
[6] = second compound 0.0316 µM, first compound 10 µM
[7] = second compound 0.1 µM, first compound 0.0316 µM
[8] = second compound 0.1 µM, first compound 0.1 µM
[9] = second compound 0.1 µM, first compound 0.316 µM
[10] = second compound 0.1 µM, first compound 1 µM
[11] = second compound 0.1 µM, first compound 3.16 µM
[12] = second compound 0.1 µM, first compound 10 µM
[13] = second compound 0.316 µM, first compound 0.0316 µM
[14] = second compound 0.316 µM, first compound 0.1 µM
[15] = second compound 0.316 µM, first compound 0.316 µM
[16] = second compound 0.316 µM, first compound 1 µM
[17] = second compound 0.316 µM, first compound 3.16 µM
[18] = second compound 0.316 µM, first compound 10 µM
[19] = second compound 1 µM, first compound 0.0316 µM
[20] = second compound 1 µM, first compound 0.1 µM
[21] = second compound 1 µM, first compound 0.316 µM
[22] = second compound 1 µM, first compound 1 µM
[23] = second compound 1 µM, first compound 3.16 µM
[24] = second compound 1 µM, first compound 10 µM
[25] = second compound 3.16 µM, first compound 0.0316 µM
[26] = second compound 3.16 µM, first compound 0.1 µM
[27] = second compound 3.16 µM, first compound 0.316 µM
[28] = second compound 3.16 µM, first compound 1 µM
[29] = second compound 3.16 µM, first compound 3.16 µM
[30] = second compound 3.16 µM, first compound 10 µM
[31] = second compound 10 µM, first compound 0.0316 µM
[32] = second compound 10 µM, first compound 0.1 µM
[33] = second compound 10 µM, first compound 0.316 µM
[34] = second compound 10 µM, first compound 1 µM
[35] = second compound 10 µM, first compound 3.16 µM
[36] = second compound 10 µM, first compound 10 µM
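Also: spheroids exposed to agents for seven days before readout.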
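For viability, T/C in this document: percent of vehicle DMSO control viability which is 100%.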

For `CC1(C)CCC(Nc2ncc(C(F)(F)F)c(-c3c[nH]c4c(P(C)(C)=O)c(C#N)ccc34)n2)CN1` (centres undefined) + Cc1nc(NC(=O)N2CCCC2C(N)=O)sc1-c1ccnc(C(C)(C)C(F)(F)F)c1, the IC50 (second compound 0.0316 µM) was under 31.6 nM, the IC50 (second compound 0.1 µM) was under 31.6 nM and the IC50 (second compound 0.316 µM) was under 31.6 nM. The IC50 (second compound 1 µM) was under 31.6 nM, the IC50 (second compound 3.16 µM) was under 31.6 nM and the IC50 (second compound 10 µM) was under 31.6 nM. For the same compound, the viability, T/C [1] was 30.4%, the viability, T/C [2] was 24.9% and the viability, T/C [3] was 26.7%. It also gave a viability, T/C [4] of 32.1%, a viability, T/C [5] of 30.8% and a viability, T/C [6] of 1.2%. The viability, T/C [7] was 27.2%, the viability, T/C [8] was 24.7% and the viability, T/C [9] was 32.2%. It also gave a viability, T/C [10] of 39.8%, a viability, T/C [11] of 28.7% and a viability, T/C [12] of 1.28%. It also gave a viability, T/C [13] of 25%, a viability, T/C [14] of 27.7% and a viability, T/C [15] of 26.9%. It also gave a viability, T/C [16] of 25.9%, a viability, T/C [17] of 32.7% and a viability, T/C [18] of 1.02%. The viability, T/C [19] was 26.6%, the viability, T/C [20] was 26.6% and the viability, T/C [21] was 31.8%. For the same compound, the viability, T/C [22] was 33.4%, the viability, T/C [23] was 30.6% and the viability, T/C [24] was 1.41%. For the same compound, the viability, T/C [25] was 29.6%, the viability, T/C [26] was 26.2% and the viability, T/C [27] was 28.6%. For the same compound, the viability, T/C [28] was 28.7%, the viability, T/C [29] was 29% and the viability, T/C [30] was 0.82%. The viability, T/C [31] was 23.9%, the viability, T/C [32] was 28.4% and the viability, T/C [33] was 24.6%. The viability, T/C [34] was 21.3%, the viability, T/C [35] was 21.2% and the viability, T/C [36] was 0.69%.

`C[C@@H](NC(=O)c1ncnc(N)c1Cl)c1ncc(C(=O)Nc2cc(C(F)(F)F)c(Cl)cn2)s1` + Cc1nc(NC(=O)N2CCCC2C(N)=O)sc1-c1ccnc(C(C)(C)C(F)(F)F)c1 showed an IC50 (second compound 0.0316 µM) of over 10000 nM, an IC50 (second compound 0.1 µM) of over 10000 nM and an IC50 (second compound 0.316 µM) of over 10000 nM. The IC50 (second compound 1 µM) was over 10000 nM, the IC50 (second compound 3.16 µM) was over 10000 nM and the IC50 (second compound 10 µM) was under 31.6 nM. It also gave a viability, T/C [1] of 106%, a viability, T/C [2] of 74.4% and a viability, T/C [3] of 71.9%. For the same compound, the viability, T/C [4] was 68.5%, the viability, T/C [5] was 96.3% and the viability, T/C [6] was 88.2%. It also gave a viability, T/C [7] of 77.5%, a viability, T/C [8] of 86.3% and a viability, T/C [9] of 81.1%. For the same compound, the viability, T/C [10] was 72.4%, the viability, T/C [11] was 70.7% and the viability, T/C [12] was 83%. For the same compound, the viability, T/C [13] was 79.8%, the viability, T/C [14] was 85.9% and the viability, T/C [15] was 61.9%. The viability, T/C [16] was 59.4%, the viability, T/C [17] was 80.7% and the viability, T/C [18] was 65.6%. It also gave a viability, T/C [19] of 56%, a viability, T/C [20] of 86.5% and a viability, T/C [21] of 74.9%. For the same compound, the viability, T/C [22] was 96.6%, the viability, T/C [23] was 61.9% and the viability, T/C [24] was 93.9%. The viability, T/C [25] was 73.8%, the viability, T/C [26] was 53.8% and the viability, T/C [27] was 70.5%. The viability, T/C [28] was 84.8%, the viability, T/C [29] was 102% and the viability, T/C [30] was 74.5%. The viability, T/C [31] was 45.7%, the viability, T/C [32] was 31.2% and the viability, T/C [33] was 61.7%. The viability, T/C [34] was 54.3%, the viability, T/C [35] was 94.9% and the viability, T/C [36] was 42.3%.

— PubChem BioAssay AID1963969 (Molecular Pharmacology Branch, DTP, NCI, 2024)
